Data published in US12440571B2, “Immune agonists” (SHENZHEN UNIVERSITY, priority 2020, dated 2025).
Like-named read-outs stand apart in the source and are kept apart here.

Assays:
[1] = tested on: Murine breast cancer 4T1 cells; assay: CCK8 growth inhibition, 4T1; type: cell-based; details: Mus musculus, CCK8 method, 24 hrs (or 36, 72 hrs), read-out: IC50 of inhibitory activity on tumor cell growth, 4T1
Experimental: Murine breast cancer 4T1 cells (Kailian Biotech, KG338) in a logarithmic growth phase were selected and washed with PBS, digested with 0.25% trypsin (including EDTA), stopped digestion with a DMEM complete medium, then centrifuged, and resuspended to form a suspension of 4T1 single cells. Cells were counted using a hemocytometer and a cell concentration was calculated. A DMEM complete medium was used to adjust the cell suspension to a target concentration, and thereafter, the cells were plated on a 96-well cell culture plate according to 4×10^3/100 μL per well. After adherering to the wall, the 4T1 cells were stimulated according to the designed concentration gradients of the series of GY compounds or drugs, with each concentration being provided with 3 replicate holes. The 96-well cell culture plate with 4T1 cells seeded and dosing was placed in the cell incubator, and incubated at 37° C., 5% carbon dioxide for 24 hrs (or 36, 72 hrs). After the incubation time was over, 10 μL of CCK8 reagent was added to each well and incubated for 1-2 hrs at 37° C. A full-wavelength microplate reader was adopted to test an OD value at 450 nm wavelength.
CCK8 calculation formula is as follows: • Cell survival rate (100%)=[…]/(Ac−Ab)×100% • As: Absorbance of wells containing cells, CCK8 solution, and drug solution • Ac: Absorbance of wells containing cells and CCK8 solution, and no drug solution • Ab: Absorbance of wells containing CCK8 solution, no cells, and no drug solution
Cell growth inhibition rate (%)=1−((OD value of experimental group−OD value of blank group)/(OD value of control group−OD value of blank group)×100%).

[2] = tested on: murine spleen lymphocytes; assay: Cytokine stimulation of murine spleen lymphocytes, ELISA; type: cell-based; details: Lymphocyte, mouse immune cells (spleen lymphocytes), 24 hrs, ELISA
Experimental: The stimulating effect of a series of GY compounds or drugs on murine spleen lymphocytes was detected by ELISA.
6-week-old Balb/c mice were sacrificed by cervical dislocation, spleens were taken under aseptic conditions. A 1 mL sterile syringe and a 200 mesh cell strainer were adopted to quickly grind and disperse the spleen into individual cells in 4 mL of a murine lymphocyte separation solution (Dakko's, 7211011). A resulting cell homogenate was transferred to a 15 mL centrifuge tube, then 1 mL of a RPMI 1640 medium (Hyclone, SH30809.01) was slowly added. Spleen lymphocytes were separated by a density gradient centrifugation method (800×g, 30 min), washed, red blood cells therein were lysed, such that a dispersed spleen lymphocyte suspension was obtained. Cells were counted by a hemocytometer, to calculate the cell concentration. A RPMI 1640 complete medium was adopted to adjust the cell suspension to a concentration of 1×10^6/ml/well, and the cells were then plated on a 24-well cell culture plate (Corning, 3524).
Murine spleen lymphocytes were stimulated according to the gradient concentrations of the series of GY compounds or drugs, and incubated in a 37° C., 5% carbon dioxide incubator for 24 hrs.
• (1) Coating: a Capture antibody (primary antibody, purchased from Invitrogen) was diluted with a 1×Coating Buffer (coating buffer, purchased from Invitrogen) to a recommended concentration, and 100 μL of a resulting diluted solution was added to each well of a 96-well microtiter plate, the plate was sealed with a sealing film at 4° C. overnight. • (2) Washing: a liquid in each well was discarded, then 300 μL of a PBST working solution was added to each well and kept for 1 min, thereafter, the liquid therein was discarded. The washing process was repeated 3 times. • (3) Blocking: 200 μL of a blocking solution was added to each well. The plate was sealed with a sealing film, and placed on a shaker and incubated at room temperature for 1 hr, then washed and patted to be dry. • (4) Sample incubation: a sample was collected and centrifuged to collect a supernatant. Standards, samples, negative controls, and blank controls were provided in the 96-well microtiter plate, and each concentration or sample were provided with 2 replicates. 100 μL of a standard or sample was added to each well, thereafter, the plate was sealed with a sealing film, incubated on a shaker at room temperature for 1 hr or overnight at 4° C., then washed and pated to be dry. • (5) Secondary antibody incubation: the detection antibody (secondary antibody, purchased from Invitrogen) was diluted to a recommended concentration with a dilution buffer, 100 μL of a secondary antibody was added to each well. After being sealed with a sealing film, the plate was incubated on a shaker at room temperature for 1 hr, then washed and patted to be dry. • (6) Avidin-HRP incubation: Avidin-HRP (horseradish peroxidase marker, purchased from Invitrogen) was diluted to the recommended concentration with a dilution buffer, 100 μL of Avidin-HRP was added to each well. After being sealed with a sealing film, the plate was placed on a shaker and incubated at room temperature for 30 mins, washed 5-7 times by the process of step 2), and patted to be dry. • (7) TMB color development: 100 μL of a TMB color development solution (purchased from Invitrogen) was added to each well, for carrying out reaction for 15 mins at room temperature in the dark. • (8) Stopping reaction: 50 μL of 1M H2SO4 solution was added to each well. • (9) Reading an absorbance value by a microplate reader: the OD value at 450 nm wavelength was read. A standard curve and a parameter nonlinear regression equation were drawn, and a sample concentration was calculated according to the obtained formula.

[3] = read-out: IFN-gamma EC50 of cytokine stimulating activity
[4] = read-out: IL-6 EC50 of cytokine stimulating activity
[5] = read-out: TNF-alpha EC50 of cytokine stimulating activity

| IC50 [1] | EC50 [2, 3] | EC50 [2, 4] | EC50 [2, 5] | Structure (SMILES) |
| --- | --- | --- | --- | --- |
| 780 nM | 1530 nM | 6 nM | 11 nM | CCCCOc1nc(N)c2nc(O)n(Cc3cn(CCCCN4CCN(CCCNC(=S)N5CCCC(n6nc(-c7ccc(Oc8ccccc8)cc7)c7c(N)ncnc76)C5)CC4)nn3)c2n1 (stereo not drawn) [GY161] |
| 17300 nM | 753 nM | 83 nM | 248 nM | CCCCOc1nc(N)c2nc(O)n(Cc3cn(CCOCCOCCOCCNC(=S)Nc4cc(Nc5nccc(-c6cn(C)c7ccccc67)n5)c(OC)cc4N(C)CCN(C)C)nn3)c2n1 [GY127] |
| 1450 nM | 8300 nM | 314 nM | 914 nM | CCCCOc1nc(N)c2nc(O)n(Cc3cn(CCOCCOCCOCCNC(=S)N4CCCC(n5nc(-c6ccc(Oc7ccccc7)cc6)c6c(N)ncnc65)C4)nn3)c2n1 (stereo not drawn) [GY112] |
